Assay results from ChEMBL document CHEMBL5137095, “N-Benzyl Benzamide Derivatives as Selective Sub-Nanomolar Butyrylcholinesterase Inhibitors for Possible Treatment in Advanced Alzheimer's Disease” (J Med Chem, 2022).

How the values were obtained:
Cholinesterase [1] = target: Cholinesterase (Homo sapiens, UniProt P06276); assay: Inhibition of human BChE using acetylthiocholine iodide or butyrylthiocholine iodide as substrate preincubated for 5 mins followed by substrate addition by Ellman's method
Cholinesterase (Homo sapiens, UniProt P06276), sequence (P06276 whole entry): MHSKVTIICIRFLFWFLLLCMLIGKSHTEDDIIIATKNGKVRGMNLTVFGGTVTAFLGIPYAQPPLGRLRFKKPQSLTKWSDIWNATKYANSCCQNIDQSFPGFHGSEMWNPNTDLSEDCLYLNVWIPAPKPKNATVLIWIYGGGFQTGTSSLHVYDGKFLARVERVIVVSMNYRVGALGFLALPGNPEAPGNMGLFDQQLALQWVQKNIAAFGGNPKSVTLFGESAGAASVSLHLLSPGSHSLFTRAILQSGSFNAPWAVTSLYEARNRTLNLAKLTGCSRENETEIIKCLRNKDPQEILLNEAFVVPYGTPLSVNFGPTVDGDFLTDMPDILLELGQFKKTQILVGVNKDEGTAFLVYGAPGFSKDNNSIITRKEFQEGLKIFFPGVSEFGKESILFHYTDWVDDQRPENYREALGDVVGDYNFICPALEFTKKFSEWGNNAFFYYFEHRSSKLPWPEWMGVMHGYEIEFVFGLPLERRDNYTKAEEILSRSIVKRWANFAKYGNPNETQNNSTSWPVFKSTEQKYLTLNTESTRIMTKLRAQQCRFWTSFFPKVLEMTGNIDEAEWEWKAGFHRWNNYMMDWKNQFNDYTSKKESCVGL

Cholinesterase [2] = target: Cholinesterase (Equus caballus, UniProt P81908); assay: Inhibition of horse serum BChE using acetylthiocholine iodide or butyrylthiocholine iodide as substrate preincubated for 5 mins followed by substrate addition by Ellman's method
Cholinesterase (Equus caballus, UniProt P81908), sequence (P81908 whole entry): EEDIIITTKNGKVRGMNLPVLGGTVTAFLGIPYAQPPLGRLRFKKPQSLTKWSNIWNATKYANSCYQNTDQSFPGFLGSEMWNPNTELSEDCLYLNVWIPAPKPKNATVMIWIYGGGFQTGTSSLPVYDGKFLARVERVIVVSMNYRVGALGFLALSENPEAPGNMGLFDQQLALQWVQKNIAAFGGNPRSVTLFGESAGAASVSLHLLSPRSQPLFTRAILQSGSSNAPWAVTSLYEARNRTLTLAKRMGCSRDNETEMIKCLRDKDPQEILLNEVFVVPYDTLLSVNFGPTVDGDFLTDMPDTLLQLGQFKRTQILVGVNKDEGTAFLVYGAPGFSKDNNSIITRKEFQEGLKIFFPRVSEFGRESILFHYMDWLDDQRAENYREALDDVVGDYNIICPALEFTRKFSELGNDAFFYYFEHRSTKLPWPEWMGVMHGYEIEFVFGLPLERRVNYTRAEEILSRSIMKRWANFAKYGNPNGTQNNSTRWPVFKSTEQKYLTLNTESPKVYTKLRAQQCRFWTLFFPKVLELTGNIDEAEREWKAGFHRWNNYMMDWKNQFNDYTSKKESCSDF

BV-2 = assay: Cytotoxicity against mouse BV-2 cells assessed as reduction in cell viability at 10 uM by MTT assay; assay type: toxicity, cell-based; conditions: bv-2, 10 µM
PC-12 [3] = assay: Cytotoxicity against rat PC-12 cells assessed as reduction in cell viability at 10 uM by MTT assay; assay type: toxicity, cell-based; conditions: pc-12, 10 µM
SH-SY5Y [4] = assay: Neuroprotective activity against amyloid beta (1 to 42)-induced cell damage in human SH-SY5Y cells assessed as cell survival at 2 uM pretreated for 2 hrs followed by amyloid beta (1 to 42) addition and measured after 24 hrs by MTT assay; assay type: functional; conditions: time 26 hrs, read-out: Activity
SH-SY5Y [5] = assay: Cytotoxicity against human SH-SY5Y cells assessed as reduction in cell viability at 10 uM by MTT assay; assay type: toxicity, cell-based
[6] = Cytotoxicity against rat PC-12 cells assessed as cell survival rate at 10 uM by MTT assay; assay type: toxicity, cell-based; conditions: read-out: Activity
HT-22 = assay: Cytotoxicity against mouse HT-22 cells assessed as reduction in cell viability at 10 uM by MTT assay; assay type: toxicity, cell-based; conditions: ht-22, 10 µM
[7] = Permeability of compound incubated for 18 hrs by PAMPA-BBB assay; assay type: ADME; conditions: read-out: permeability
PC-12 [8] = assay: Neuroprotective activity against H2O2-induced cell damage in rat PC-12 cells assessed as survival rate at 5 to 10 uM pretreated for 2 hrs followed by H2O2 addition and measured after 24 hrs by MTT assay; assay type: functional; conditions: dose 5-10 µM, time 26 hrs
SH-SY5Y [9] = assay: Neuroprotective activity against amyloid beta (1 to 42)-induced cell damage in human SH-SY5Y cells assessed as cell survival at 5 uM pretreated for 2 hrs followed by amyloid beta (1 to 42) addition and measured after 24 hrs by MTT assay; assay type: functional; conditions: time 26 hrs, read-out: Activity
[10] = Cytotoxicity against mouse HT-22 cells assessed as cell survival rate at 10 uM by MTT assay; assay type: toxicity, cell-based; conditions: read-out: Activity
[11] = Cytotoxicity against human SH-SY5Y cells assessed as cell survival rate at 10 uM by MTT assay; assay type: toxicity, cell-based; conditions: read-out: Activity
[12] = Cytotoxicity against mouse BV-2 cells assessed as cell survival rate at 10 uM by MTT assay; assay type: toxicity, cell-based; conditions: read-out: Activity
[13] = n-octanol-water partition coefficient, log P of the compound by HPLC analysis; assay type: physicochemical
SH-SY5Y [14] = assay: Neuroprotective activity against amyloid beta (1 to 42)-induced cell damage in human SH-SY5Y cells assessed as cell survival rate at 25 uM pretreated for 2 hrs followed by amyloid beta (1 to 42) addition and measured after 24 hrs by MTT assay; assay type: functional; conditions: time 26 hrs

With `CCN(CC)Cc1ccccc1CNC(=O)c1ccc(Br)c(NC(=O)c2ccc(F)cc2)c1` the IC50 (Cholinesterase [1]) was 2.58 nM and the IC50 (Cholinesterase [2]) was 2.42 nM.

`CCN(CC)Cc1ccccc1CNC(=O)c1cccc(NC(=O)C2CCCCC2)c1` showed an IC50 (Cholinesterase [1]) of 3.71 nM and an IC50 (Cholinesterase [2]) of 7.9 nM.

Compound `CCN(CC)Cc1ccccc1CNC(=O)c1cccc(NC(=O)c2ccc(F)cc2)c1Br` has an IC50 (Cholinesterase [1]) of 1840 nM and an IC50 (Cholinesterase [2]) of 14.4 nM.

With `CN(C)Cc1ccccc1CNC(=O)c1cccc(NC(=O)c2cccs2)c1` the Activity (BV-2) was “Non-Toxic”, the Activity (PC-12 [3]) was “Non-Toxic” and the viability at 2 µM (SH-SY5Y [4]) was 82.6%. For the same compound, the Activity (SH-SY5Y [5]) was “Non-Toxic”, the viability at 10 µM [6] was greater than 70% and the Activity (HT-22) was “Non-Toxic”. The Papp at 18 h [7] was 6.82 ×10⁻⁶ cm/s, the Activity (PC-12 [8]) was 61.7% and the viability at 5 µM (SH-SY5Y [9]) was 68%. It also gave a viability at 10 µM [10] greater than 70%, a viability at 10 µM [11] greater than 70% and a viability at 10 µM [12] greater than 70%. The logP [13] was 1.93 and the Activity (SH-SY5Y [14]) was 64.12%.

`CCN(CC)Cc1ccccc1CNC(=O)c1ccc(NC(=O)c2ccc(F)cc2)cc1` gave an IC50 (Cholinesterase [1]) of 5.29 nM and an IC50 (Cholinesterase [2]) of 4.99 nM.

In the case of `CCN(CC)Cc1ccccc1CNC(=O)c1cc(NC(=O)c2ccc(F)cc2)cc(C(F)(F)F)c1`, the IC50 (Cholinesterase [1]) is reported as 8.67 nM and the IC50 (Cholinesterase [2]) is reported as 1.35 nM.

Work on `CCN(CC)Cc1ccccc1CNC(=O)c1cccc(OC(=O)c2cccs2)c1` yielded an IC50 (Cholinesterase [1]) of 132 nM and an IC50 (Cholinesterase [2]) of 158 nM.

`Cc1ccccc1NC(=O)c1cccc(NC(=O)c2cccs2)c1` showed an IC50 (Cholinesterase [1]) of 11100 nM and an IC50 (Cholinesterase [2]) of 12900 nM.

In the case of `CN(C)Cc1ccccc1NC(=O)c1cccc(NC(=O)c2cccs2)c1`, the IC50 (Cholinesterase [1]) is reported as 1240 nM.

`CCN(CC)Cc1ccccc1CNC(=O)c1cccc(NC(=O)c2ccc(Br)cc2)c1` showed an IC50 (Cholinesterase [1]) of 0.13 nM, an IC50 (Cholinesterase [2]) of 0.087 nM and a logP [13] of 2.73.

Compound `CCN(CC)Cc1ccccc1CNC(=O)c1cc(NC(=O)c2ccc(F)cc2)ccc1Br` has an IC50 (Cholinesterase [1]) of 16.1 nM and an IC50 (Cholinesterase [2]) of 3.53 nM.

Work on `CCN(CC)Cc1ccccc1CNC(=O)c1cc(NC(=O)c2ccc(F)cc2)cc(OC)c1` yielded an IC50 (Cholinesterase [1]) of 136 nM and an IC50 (Cholinesterase [2]) of 0.82 nM.

For `CCN(CC)Cc1ccccc1CNC(=O)c1cc(Cl)cc(NC(=O)c2ccc(F)cc2)c1`, the Activity (BV-2) was “Non-Toxic”, the Activity (PC-12 [3]) was “Non-Toxic” and the Activity (SH-SY5Y [5]) was “Non-Toxic”. For the same compound, the viability at 10 µM [6] was greater than 70%, the Activity (HT-22) was “Non-Toxic” and the Papp at 18 h [7] was 7.54 ×10⁻⁶ cm/s. It also gave an IC50 (Cholinesterase [1]) of 0.22 nM, a viability at 10 µM [10] greater than 70% and an IC50 (Cholinesterase [2]) of 0.16 nM. For the same compound, the viability at 10 µM [11] was greater than 70%, the viability at 10 µM [12] was greater than 70% and the logP [13] was 1.11.

In the case of `CCN(CC)Cc1ccccc1CNC(=O)c1cccc(NC(=O)c2ccc(F)cc2)c1C`, the Papp at 18 h [7] is reported as 11.4 ×10⁻⁶ cm/s, the IC50 (Cholinesterase [1]) is reported as 0.26 nM and the IC50 (Cholinesterase [2]) is reported as 0.14 nM. The logP [13] was 1.02.

In the case of `CCN(CC)Cc1ccccc1CNC(=O)c1cccc(NC(=O)c2cccs2)c1`, the Activity (BV-2) is reported as “Non-Toxic”, the Activity (PC-12 [3]) is reported as “Non-Toxic” and the Activity (SH-SY5Y [5]) is reported as “Non-Toxic”. For the same compound, the viability at 10 µM [6] was greater than 70%, the Activity (HT-22) was “Non-Toxic” and the Papp at 18 h [7] was 19 ×10⁻⁶ cm/s. The IC50 (Cholinesterase [1]) was 0.35 nM, the viability at 10 µM [10] was greater than 70% and the viability at 10 µM [11] was greater than 70%. The viability at 10 µM [12] was greater than 70% and the logP [13] was 2.11.

In the case of `CCN(CC)Cc1ccccc1NC(=O)c1cccc(NC(=O)c2cccs2)c1`, the IC50 (Cholinesterase [1]) is reported as 540 nM.

With `CCN(CC)Cc1ccccc1CNC(=O)c1cc(NC(=O)c2ccc(F)cc2)cc([N+](=O)[O-])c1` the Activity (BV-2) was “Non-Toxic”, the Activity (PC-12 [3]) was “Non-Toxic” and the Activity (SH-SY5Y [5]) was “Non-Toxic”. The viability at 10 µM [6] was greater than 70%, the Activity (HT-22) was “Non-Toxic” and the IC50 (Cholinesterase [1]) was 1.04 nM. It also gave a viability at 10 µM [10] greater than 70%, an IC50 (Cholinesterase [2]) of 1.27 nM and a viability at 10 µM [11] greater than 70%. It also gave a viability at 10 µM [12] greater than 70%.

For `CCN(CC)Cc1cccc(CNC(=O)c2cccc(NC(=O)c3cccs3)c2)c1`, the IC50 (Cholinesterase [1]) was 48900 nM and the IC50 (Cholinesterase [2]) was 55000 nM.

`CCCN(CCC)Cc1ccccc1NC(=O)c1cccc(NC(=O)c2cccs2)c1` showed an IC50 (Cholinesterase [1]) of 870 nM and an IC50 (Cholinesterase [2]) of 120 nM.

`CCN(CC)Cc1ccccc1CNC(=O)c1cc(C#N)cc(NC(=O)c2ccc(F)cc2)c1` gave an IC50 (Cholinesterase [1]) of 3.16 nM and an IC50 (Cholinesterase [2]) of 1.51 nM.

In the case of `CCN(CC)Cc1ccccc1CNC(=O)c1cccc(NC(=O)c2ccc(OC)cc2)c1`, the Activity (BV-2) is reported as “Non-Toxic”, the Activity (PC-12 [3]) is reported as “Non-Toxic” and the Activity (SH-SY5Y [5]) is reported as “Non-Toxic”. For the same compound, the viability at 10 µM [6] was greater than 70%, the Activity (HT-22) was “Non-Toxic” and the viability at 10 µM [10] was greater than 70%. It also gave a viability at 10 µM [11] greater than 70% and a viability at 10 µM [12] greater than 70%.
